Laboratory results published in US20080255115A1, “THIAZOLIDINEDIONE DERIVATIVES AS PI3 KINASE INHIBITORS” (priority 2007, published 2008).

What was measured:
PI3Kα = biological target: T1, PI3Kα (Homo sapiens, UniProt P42336); test: PI3K Alpha Leadseeker SPA Assay; format: biochemical; conditions: His-p110/p85 PI3K alpha, SPA imaging beads, P33-ATP; read-out: IC50 against PI3Kα
T1 construct: His
Procedure: PI3K Alpha Leadseeker SPA Assay
Compounds of the present invention were tested according to the following assays and found as inhibitors of PI3 kinases, particularly PI3Kα. The activities (IC50) range from 1 to 500 μM against PI3Kα.
SPA imaging beads are microspheres containing scintillant which emit light in the red region of the visible spectrum. As a result, these beads are ideally suited to use with a CCD imager such as the Viewlux. The Leadseeker beads used in this system are polystyrene beads that have been coupled with polyethyleneimine. When added to the assay mixture, the beads absorb both the substrate (PIP2) and product (PIP3). Adsorbed P^33-PIP3 will cause an increase in signal, measured as ADUs (analog to digital units). This protocol details the use of the PEI-PS Leadseeker beads for assays using His-p110/p85 PI3K alpha.
Solid compounds are typically plated with 0.1 μl of 100% DMSO in all wells (except column 6 and 18) of a 384-well, flat bottom, low volume plate (Greiner 784075). […]
The assay buffer contains MOPS (pH 6.5), CHAPS, and DTT. […] The signal is determined using a Viewlux detector and is then imported into curve fitting software (Activity Base) for construction of concentration response curves. […]

Class I PI3-kinases = conditions: wortmannin, background section; read-out: IC50 against each of the various Class I PI3-kinases; cited from earlier work

T1 sequence (P42336 whole entry): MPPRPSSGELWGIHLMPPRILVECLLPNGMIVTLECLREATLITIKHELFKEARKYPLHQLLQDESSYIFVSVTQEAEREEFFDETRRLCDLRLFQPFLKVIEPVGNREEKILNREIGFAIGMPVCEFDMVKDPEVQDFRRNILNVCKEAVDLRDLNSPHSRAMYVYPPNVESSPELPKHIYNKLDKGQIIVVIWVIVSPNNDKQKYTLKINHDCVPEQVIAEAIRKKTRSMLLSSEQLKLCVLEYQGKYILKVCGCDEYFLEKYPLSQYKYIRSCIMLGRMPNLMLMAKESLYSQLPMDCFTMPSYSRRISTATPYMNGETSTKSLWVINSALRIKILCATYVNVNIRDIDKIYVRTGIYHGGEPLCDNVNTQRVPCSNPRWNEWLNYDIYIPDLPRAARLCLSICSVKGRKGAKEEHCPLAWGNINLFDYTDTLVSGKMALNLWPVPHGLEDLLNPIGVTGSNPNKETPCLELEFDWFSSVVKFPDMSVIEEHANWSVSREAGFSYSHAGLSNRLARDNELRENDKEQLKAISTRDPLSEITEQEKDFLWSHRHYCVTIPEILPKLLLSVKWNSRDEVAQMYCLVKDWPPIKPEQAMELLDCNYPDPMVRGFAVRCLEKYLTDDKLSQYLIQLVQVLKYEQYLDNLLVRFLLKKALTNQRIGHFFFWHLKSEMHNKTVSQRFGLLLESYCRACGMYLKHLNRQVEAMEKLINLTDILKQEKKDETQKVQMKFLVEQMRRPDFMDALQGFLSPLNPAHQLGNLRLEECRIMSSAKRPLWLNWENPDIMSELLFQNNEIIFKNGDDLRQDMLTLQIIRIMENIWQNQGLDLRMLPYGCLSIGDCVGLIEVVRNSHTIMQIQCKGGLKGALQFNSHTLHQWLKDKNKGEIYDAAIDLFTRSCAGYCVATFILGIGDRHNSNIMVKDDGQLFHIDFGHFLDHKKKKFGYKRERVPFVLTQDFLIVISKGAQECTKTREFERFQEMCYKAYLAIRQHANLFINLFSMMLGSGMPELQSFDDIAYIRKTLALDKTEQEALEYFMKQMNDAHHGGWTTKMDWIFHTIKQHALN
T1 sequence (P27986 whole entry partner): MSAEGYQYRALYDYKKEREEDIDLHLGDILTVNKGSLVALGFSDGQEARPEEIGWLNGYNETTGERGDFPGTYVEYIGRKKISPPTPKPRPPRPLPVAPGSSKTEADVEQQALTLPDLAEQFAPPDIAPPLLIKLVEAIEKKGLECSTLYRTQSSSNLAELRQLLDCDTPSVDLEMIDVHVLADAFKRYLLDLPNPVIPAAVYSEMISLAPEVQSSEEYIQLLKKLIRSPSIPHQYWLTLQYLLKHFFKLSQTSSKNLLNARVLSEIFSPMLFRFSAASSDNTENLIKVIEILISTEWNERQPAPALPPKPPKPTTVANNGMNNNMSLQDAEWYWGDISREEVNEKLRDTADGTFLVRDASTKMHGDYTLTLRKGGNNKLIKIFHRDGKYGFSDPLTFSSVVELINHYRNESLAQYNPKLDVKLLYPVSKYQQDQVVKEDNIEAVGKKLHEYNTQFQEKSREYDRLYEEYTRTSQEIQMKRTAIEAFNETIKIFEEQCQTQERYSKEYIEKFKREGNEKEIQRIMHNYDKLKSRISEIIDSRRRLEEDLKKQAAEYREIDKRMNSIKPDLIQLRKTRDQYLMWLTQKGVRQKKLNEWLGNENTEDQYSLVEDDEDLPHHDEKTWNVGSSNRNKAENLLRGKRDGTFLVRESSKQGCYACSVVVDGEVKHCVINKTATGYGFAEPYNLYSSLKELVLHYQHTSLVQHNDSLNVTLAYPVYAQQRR

Row | Compound | IC50 (PI3Kα) [nM] | IC50 (Class I PI3-kinases) [nM]
1 | O=C1NC(=O)/C(=C/c2ccc3nccc(-c4ccncc4)c3c2)S1 [Example 1, (5Z)-5-{[4-(4-pyridinyl)-6-quinolinyl]methylidene}-1,3-thiazolidine-2,4-dione] | 1000 | 
2 | COC[C@H]1OC(=O)c2coc3c2[C@@]1(C)C1=C(C3=O)[C@@H]2CCC(=O)[C@@]2(C)C[C@H]1OC(C)=O [wortmannin] |  | 1 to 10
